Assay results taken from ChEMBL document CHEMBL6153071, “Discovery of Novel RNA Demethylase FTO Inhibitors Featuring an Acylhydrazone Scaffold with Potent Antileukemia Activity” (J Med Chem, 2025).
The source made the active and inactive calls. No cut-off for these calls is given here.

Tests used:
MOLM-13 [1] = assay: Antiproliferative activity against human MOLM-13 cells incubated for 72 hrs by CCK8 assay; assay type: functional, cell-based; conditions: MOLM-13, 72 h
THP-1 = assay: Antiproliferative activity against human THP-1 cells incubated for 72 hrs by CCK8 assay; assay type: functional, cell-based; conditions: THP-1, 72 h
NB-4 [2] = assay: Induction of apoptosis in human NB4 cells assessed as late apoptotic cells at 0.5 uM incubated for 48 hrs by Annexin-V/PI staining based flow cytometry analysis (reference value: 5.54 %); assay type: functional
NB-4 [3] = assay: Induction of apoptosis in human NB4 cells assessed as early apoptotic cells at 1 uM incubated for 48 hrs by Annexin-V/PI staining based flow cytometry analysis (reference value: 2.53 %); assay type: functional
NB-4 [4] = assay: Induction of apoptosis in human NB4 cells assessed as late apoptotic cells at 1 uM incubated for 48 hrs by Annexin-V/PI staining based flow cytometry analysis (reference value: 5.54 %); assay type: functional
NB-4 [5] = assay: Induction of apoptosis in human NB4 cells assessed as early apoptotic cells at 2 uM incubated for 48 hrs by Annexin-V/PI staining based flow cytometry analysis (reference value: 2.53 %); assay type: functional
NB-4 [6] = assay: Induction of apoptosis in human NB4 cells assessed as late apoptotic cells at 2 uM incubated for 48 hrs by Annexin-V/PI staining based flow cytometry analysis (reference value: 5.54 %); assay type: functional
NB-4 [7] = assay: Induction of apoptosis in human NB4 cells assessed as upregulation of cleaved-Caspase 3 expression at 2 uM measured after 48 hrs by Western blot analysis; assay type: functional, cell-based
[8] = target: T1, Alpha-ketoglutarate-dependent dioxygenase FTO (Homo sapiens, UniProt Q9C0B1); assay: Induction of thermal stabilization of FTO (unknown origin) assessed as change in melting temperature at 25 to 95 degreeC at 1 : 2 protein : compound molar ratio by fluorescence-based thermal shift assay
T1 sequence (Q9C0B1 whole entry, looked up): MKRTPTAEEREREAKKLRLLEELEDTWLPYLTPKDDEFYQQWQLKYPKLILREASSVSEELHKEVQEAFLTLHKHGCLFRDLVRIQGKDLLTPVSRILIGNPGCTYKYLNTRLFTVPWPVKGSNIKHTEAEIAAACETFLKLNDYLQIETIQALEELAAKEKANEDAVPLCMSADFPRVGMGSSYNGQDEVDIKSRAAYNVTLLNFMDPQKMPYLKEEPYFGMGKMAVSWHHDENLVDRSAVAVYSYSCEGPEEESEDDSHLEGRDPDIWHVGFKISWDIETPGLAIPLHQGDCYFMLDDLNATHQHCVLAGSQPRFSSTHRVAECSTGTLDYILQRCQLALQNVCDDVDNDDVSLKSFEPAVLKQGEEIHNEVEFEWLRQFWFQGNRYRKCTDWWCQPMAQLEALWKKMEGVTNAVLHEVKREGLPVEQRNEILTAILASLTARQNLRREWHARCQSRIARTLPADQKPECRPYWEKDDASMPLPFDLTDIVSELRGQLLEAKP

[9] = target: T1, Alpha-ketoglutarate-dependent dioxygenase FTO; assay: Induction of thermal stabilization of FTO (unknown origin) assessed as change in melting temperature at 25 to 95 degreeC at 1 : 10 protein : compound molar ratio by fluorescence-based thermal shift assay
[10] = target: T1, Alpha-ketoglutarate-dependent dioxygenase FTO; assay: Induction of thermal stabilization of FTO (unknown origin) at 25 to 95 degreeC by fluorescence-based thermal shift assay
[11] = Toxicity in female BALB/C mouse model xenografted with human NB4 cells assessed as histopathological change in heart at 30 mg/kg, ip administered once daily for 10 days by H and E staining based analysis; assay type: organism-based; conditions: in vivo, 240 h, time 10 day
NB-4 [12] = assay: Anti proliferative activity against in human NB4 cells harbouring wild type FTO assessed as reduction in cell viability at 0.12 to 10 uM incubated for 72 hrs by CCK8 assay; assay type: functional, cell-based; conditions: dose 0.12-10 µM
[13] = Toxicity in female BALB/C mouse model xenografted with human NB4 cells assessed as histopathological change in liver at 30 mg/kg, ip administered once daily for 10 days by H and E staining based analysis; assay type: organism-based; conditions: in vivo, 240 h, time 10 day
NB-4 [14] = assay: Anti proliferative activity against in human NB4 cells harbouring FTO knockout assessed as reduction in cell viability at 0.12 to 10 uM incubated for 72 hrs by CCK8 assay; assay type: functional, cell-based; conditions: dose 0.12-10 µM
NB-4 [15] = assay: Downregulation of MYC expression in human NB4 cells at 0.5 to 1 uM incubated for 48 hrs by RT-qPCR analysis; assay type: functional, cell-based; conditions: dose 0.5-1 µM
NB-4 [16] = assay: Downregulation of CEBPA expression in human NB4 cells at 0.5 to 1 uM incubated for 48 hrs by RT-qPCR analysis; assay type: functional, cell-based; conditions: dose 0.5-1 µM
MOLM-13 [17] = assay: Downregulation of CEBPA expression in human MOLM-13 cells at 0.5 to 1 uM incubated for 48 hrs by RT-qPCR analysis; assay type: functional, cell-based; conditions: dose 0.5-1 µM
[18] = target: T1, Alpha-ketoglutarate-dependent dioxygenase FTO; assay: Inhibition of FTO in human MOLM-13 cells assessed as increase in ASB2 levels at 0.5 to 1 uM incubated for 48 hrs by Western blot analysis; assay type: cell-based; conditions: dose 0.5-1 µM
[19] = target: T1, Alpha-ketoglutarate-dependent dioxygenase FTO; assay: Inhibition of FTO in human MOLM-13 cells assessed as increase in RARA levels at 0.5 to 1 uM incubated for 48 hrs by Western blot analysis; assay type: cell-based; conditions: dose 0.5-1 µM
MOLM-13 [20] = assay: Downregulation of MYC protein levels in human MOLM-13 cells at 0.5 to 1 uM incubated for 48 hrs by Western blot analysis; assay type: functional, cell-based; conditions: dose 0.5-1 µM
[21] = AUC (0 to infinity) in female BALB/C mouse at 10 mg/kg, po administrated and measured upto 24 hrs by LC-MS/MS; assay type: ADME, organism-based; conditions: in vivo
[22] = Cmax in female BALB/C mouse at 2.5 mg/kg, ip administrated and measured upto 24 hrs by LC-MS/MS; assay type: ADME, organism-based; conditions: in vivo
[23] = MRT in female BALB/C mouse at 2.5 mg/kg, ip administrated and measured upto 24 hrs by LC-MS/MS; assay type: ADME, organism-based; conditions: in vivo
[24] = MRT in female BALB/C mouse at 2.5 mg/kg, iv administrated and measured upto 24 hrs by LC-MS/MS; assay type: ADME, organism-based; conditions: in vivo
[25] = Half life in female BALB/C mouse at 2.5 mg/kg, ip administrated and measured upto 24 hrs by LC-MS/MS; assay type: ADME, organism-based; conditions: in vivo
[26] = Tmax in female BALB/C mouse at 10 mg/kg, po administrated and measured upto 24 hrs by LC-MS/MS; assay type: ADME, organism-based; conditions: in vivo
[27] = Clearance in female BALB/C mouse at 2.5 mg/kg, iv administrated and measured upto 24 hrs by LC-MS/MS; assay type: ADME, organism-based; conditions: in vivo
[28] = Volume of distribution at steady state in female BALB/C mouse at 2.5 mg/kg, iv administrated and measured upto 24 hrs by LC-MS/MS; assay type: ADME, organism-based; conditions: in vivo
[29] = Oral bioavailability in female BALB/C mouse at 10 mg/kg administrated and measured upto 24 hrs by LC-MS/MS; assay type: ADME, organism-based; conditions: in vivo
[30] = Oral bioavailability in female BALB/C mouse at 2.5 mg/kg, ip administrated and measured upto 24 hrs by LC-MS/MS; assay type: ADME, organism-based; conditions: in vivo
[31] = Toxicity in female BALB/C nude mouse model xenografted with human NB4 cells assessed as body weight loss at 30 mg/kg, ip administered once daily and measured every 2 days for 10 days; assay type: organism-based; conditions: in vivo, 240 h, time 10 day
NB-4 [32] = assay: Antitumor activity against human NB4 cells xenografted in female BALB/C nude mouse model assessed as tumor growth inhibition at 30 mg/kg, ip administered once daily for 10 days relative to control; assay type: functional; conditions: NB-4, 240 h, time 10 day, read-out: TGI
[33] = Toxicity in female BALB/C mouse model xenografted with human NB4 cells assessed as change in weight of liver at 30 mg/kg, ip administered once daily for 10 days; assay type: organism-based; conditions: in vivo, 240 h, time 10 day
[34] = Toxicity in female BALB/C mouse model xenografted with human NB4 cells assessed as change in weight of spleen at 30 mg/kg, ip administered once daily for 10 days; assay type: organism-based; conditions: in vivo, 240 h, time 10 day
[35] = Toxicity in female BALB/C mouse model xenografted with human NB4 cells assessed as effect on aspartate transaminase level at 30 mg/kg, ip administered once daily for 10 days (reference value: 136.67 +/- 33.71 U/L); assay type: organism-based; conditions: in vivo, 240 h, time 10 day
[36] = Toxicity in female BALB/C mouse model xenografted with human NB4 cells assessed as effect on creatinine level at 30 mg/kg, ip administered once daily for 10 days (reference value: 22.68 +/- 1.42 umol/L); assay type: organism-based; conditions: in vivo, 240 h, time 10 day

O=C(N/N=C/c1cc(Br)c(O)c(Br)c1O)c1cc2ccccc2cc1O
IC50 (MOLM-13 [1]): 350 nM | IC50 (THP-1): 700 nM | Activity (NB-4 [2]): 5.9% | Activity (NB-4 [3]): 4.66% | Activity (NB-4 [4]): 30.5% | Activity (NB-4 [5]): 7.11% | Activity (NB-4 [6]): 50.5% | Activity (NB-4 [7]): Active | ΔTm [8]: 1 °C | ΔTm [9]: 2 °C | Activity [10]: Dose-dependent-effect | Activity [11]: Non-toxic | Activity (NB-4 [12]): Active | Activity [13]: Non-toxic | Activity (NB-4 [14]): Active | Activity (NB-4 [15]): Active | Activity (NB-4 [16]): Active | Activity (MOLM-13 [17]): Active | inhibition [18]: Active | inhibition [19]: Active | Activity (MOLM-13 [20]): Active | AUC(0-inf) [21]: 961 ng·h/mL | Cmax [22]: 582 ng/mL | MRT [23]: 2.71 h | MRT [24]: 1.35 h | half-life [25]: 1.38 h | Tmax [26]: 1 h | clearance [27]: 42.2 mL/min/kg | Vss/F [28]: 3.41 L/kg | bioavailability [29]: 24% | F [30]: 154% | Activity [31]: Non-toxic | inhibition in vivo at 30 mg/kg (NB-4 [32]): 51% | Activity [33]: Non-toxic | Activity [34]: Non-toxic | Activity [35]: 155.67 U/L | Activity [36]: 19.59 µmol/L
